Reference: ChEMBL document CHEMBL3046515, “Zn(Proline)2-catalyzed Knoevenagel condensation under solvent-free/aqueous conditions and biological evaluation of products” (2011)
Calls of active or inactive are those of the source. The calls are words filed in the database; no cut-off is given here.

Experiments:
Aspergillus fumigatus [1] = experiment: Antifungal activity against Aspergillus fumigatus at 100 ug/ml after 72 hr; assay type: functional; details: for zone of inhibition at 100 µg/mL: read-out: DIZ
Aspergillus niger [2] = experiment: Antifungal activity against Aspergillus niger at 100 ug/ml after 72 hr; assay type: functional; details: for zone of inhibition at 100 µg/mL: read-out: DIZ
Candida albicans [3] = experiment: Antifungal activity against Candida albicans at 100 ug/ml after 18 to 48 hr; assay type: functional; details: for zone of inhibition at 100 µg/mL: read-out: DIZ
Escherichia coli [4] = experiment: Antibacterial activity against Escherichia coli K-12 at 100 ug/ml after 24 hr by filter paper disk method; assay type: functional; details: for zone of inhibition at 100 µg/mL: K-12, 24 h, read-out: DIZ
Salmonella typhimurium [5] = experiment: Antibacterial activity against Salmonella enterica subsp. enterica serovar Typhimurium MTCC 98 at 100 ug/ml after 24 hr by filter paper disk method; assay type: functional; details: for zone of inhibition at 100 µg/mL: MTCC 98, 24 h, read-out: DIZ
Bacillus subtilis [6] = experiment: Antibacterial activity against Bacillus subtilis MTCC 121 at 100 ug/ml after 24 hr by filter paper disk method; assay type: functional; details: for zone of inhibition at 100 µg/mL: MTCC 121, 24 h, read-out: DIZ
Staphylococcus aureus [7] = experiment: Antibacterial activity against Staphylococcus aureus SA 22 at 100 ug/ml after 24 hr by filter paper disk method; assay type: functional; details: for zone of inhibition at 100 µg/mL: SA 22, 24 h, read-out: DIZ
Salmonella typhimurium [8] = experiment: Antibacterial activity against Salmonella enterica subsp. enterica serovar Typhimurium MTCC 98 at 30 ug/disc after 24 hr by filter paper disk method; assay type: functional; details: MTCC 98, 24 h, read-out: DIZ
Escherichia coli [9] = experiment: Antibacterial activity against Escherichia coli K-12 at 30 ug/disc after 24 hr by filter paper disk method; assay type: functional; details: K-12, 24 h, read-out: DIZ
Bacillus subtilis [10] = experiment: Antibacterial activity against Bacillus subtilis MTCC 121 at 30 ug/disk after 24 hr by filter paper disk method; assay type: functional; details: MTCC 121, 24 h, read-out: DIZ
Staphylococcus aureus [11] = experiment: Antibacterial activity against Staphylococcus aureus SA 22 at 30 ug/disc after 24 hr by filter paper disk method; assay type: functional; details: SA 22, 24 h, read-out: DIZ
Aspergillus fumigatus [12] = experiment: Antifungal activity against Aspergillus fumigatus at 30 ug/disk after 72 hr; assay type: functional, organism-based
Aspergillus niger [13] = experiment: Antifungal activity against Aspergillus niger at 30 ug/disk after 72 hr; assay type: functional, organism-based
Candida albicans [14] = experiment: Antifungal activity against Candida albicans at 30 ug/disk after 18 to 48 hr; assay type: functional, organism-based

| Compound | diameter of the inhibition zone (DIZ) (Aspergillus fumigatus [1]) | diameter of the inhibition zone (DIZ) (Aspergillus niger [2]) | zone of inhibition at 100 µg/mL (Candida albicans [3]) [mm] | zone of inhibition at 100 µg/mL (Escherichia coli [4]) [mm] | diameter of the inhibition zone (DIZ) (Salmonella typhimurium [5]) | zone of inhibition at 100 µg/mL (Staphylococcus aureus [7]) [mm] | diameter of the inhibition zone (DIZ) (Candida albicans [3]) | zone of inhibition at 100 µg/mL (Aspergillus fumigatus [1]) [mm] | zone of inhibition at 100 µg/mL (Aspergillus niger [2]) [mm] | zone of inhibition at 100 µg/mL (Salmonella typhimurium [5]) [mm] | zone of inhibition at 100 µg/mL (Bacillus subtilis [6]) [mm] | other results |
| --- | --- | --- | --- | --- | --- | --- | --- | --- | --- | --- | --- | --- |
| Cc1nn(-c2ccccc2)c(Cl)c1/C=C1\Sc2ccccc2NC1=O | inactive | inactive | 15 | 8 | inactive | 14 | – | – | – | – | – | diameter of the inhibition zone (DIZ) (Bacillus subtilis [6]): inactive |
| O=C(N[C@H](CO)[C@H](O)c1ccc([N+](=O)[O-])cc1)C(Cl)Cl [CHLORAMPHENICOL] | inactive | inactive | – | – | – | – | inactive | – | – | – | – | zone of inhibition at 30 µg/disc (Salmonella typhimurium [8]): 20 mm; zone of inhibition at 30 µg/disc (Escherichia coli [9]): 25 mm; zone of inhibition at 30 µg/disc (Bacillus subtilis [10]): 24 mm; zone of inhibition at 30 µg/disc (Staphylococcus aureus [11]): 26 mm |
| Cc1nn(-c2ccccc2)c(Cl)c1C=C1C(=O)N(C)C(=O)N(C)C1=O | – | – | 11 | 15 | – | 20 | – | 11 | 8 | 14 | 16 | – |
| Cc1nn(-c2ccccc2)c(Cl)c1C=C1C(=O)NC(=O)NC1=O | inactive | inactive | – | 15 | – | 17 | inactive | – | – | 12 | 19 | – |
| Cc1nn(-c2ccccc2)c(Cl)c1C=C1C(=O)c2ccccc2C1=O | – | – | 12 | 17 | – | 12 | – | 10 | 8 | 15 | 8 | – |
| CC1=NN(c2ccccc2)C(=O)/C1=C/c1c(C)nn(-c2ccccc2)c1Cl | – | – | – | 8 | – | – | inactive | 11 | 10 | 12 | 12 | diameter of the inhibition zone (DIZ) (Staphylococcus aureus [7]): inactive |
| Cc1nn(-c2ccccc2)c(Cl)c1C=C1C(=O)OC(C)(C)OC1=O | inactive | inactive | 14 | – | inactive | 19 | – | – | – | – | 15 | diameter of the inhibition zone (DIZ) (Escherichia coli [4]): inactive |
| NYSTATIN | – | – | – | – | inactive | – | – | – | – | – | – | inhibition zone (IZ) (Aspergillus fumigatus [12]): 18 mm; inhibition zone (IZ) (Aspergillus niger [13]): 18 mm; inhibition zone (IZ) (Candida albicans [14]): 20 mm; diameter of the inhibition zone (DIZ) (Escherichia coli [4]): inactive; diameter of the inhibition zone (DIZ) (Bacillus subtilis [6]): inactive; diameter of the inhibition zone (DIZ) (Staphylococcus aureus [7]): inactive |
| Cc1nn(-c2ccccc2)c(Cl)c1C=C1C(=O)N(C)C(=S)N(C)C1=O | inactive | inactive | 16 | 15 | – | 12 | – | – | – | 17 | 8 | – |
